{"source": "paper PMC12400448", "about": "(Chemical Science, 2025)", "biological_target": "alkaline phosphatase (ALP)", "experiment": "fluorescence enzyme inhibition assay with compd. […] as substrate", "assay_type": "biochemical"}
{"compound": "[O]=[V]([OH])([OH])[OH]", "note": "[sodium orthovanadate]", "values": [{"measurement": "IC50", "result": 10.2, "unit": "µM"}]}
